Measurements from patent publication US8470765B2, “Polypeptides and antibacterial or antiseptic use of same” (AnGes MG, Inc., priority 2009, dated 2013).
Read-outs that look alike come from different tables or passages of the source. No end group written: not given here.

How the values were obtained:
[1] = system: Escherichia coli ATCC 25922; assay: microbe, parasite or virus in culture; format: cell-based
Method: (§1) Bacteria (Escherichia coli ATCC 25922, Pseudomonas aeruginosa ATCC 27853, Staphylococcus aureus ATCC29213, Klebsiella pneumoniae JCM 1662, Enterobacter cloacae JCM 1232, Enterobacter aerogenes JCM 1235 and Staphylococcus epidermidis JCM 2414) were inoculated to Mueller-Hinton broth: MHB or LB medium, and cultured at a temperature and period suited for each strain. From the thus obtained colonies, each strain was inoculated to a fresh liquid medium and cultured for 16 to 20 hours. Then an aliquot having a volume (10 to 50 appropriate to each strain was inoculated to a fresh liquid medium and cultured for 4 to 6 hours, followed by the measurement of the absorbance at 600 nm. After comparing the turbidity with McFarland #0.5, the resultant was diluted with a medium. Each strain was added to about 10^5 CFU/mL (final concentration). Each of the peptide solutions to be tested was diluted with MHB to obtain a solution of 128 μg/mL. […] As controls, tobramycin (TOB: aminoglucoside antibiotic), oxacillin (OX:β-lactam antibiotic), meropenem (MEPM: carbapenem antibiotic) and ciprofloxacin (new quinolone antibiotic) were used. […] To a 96-well microtiter plate, 0.1 mL of the inoculation solution and 0.1 mL of the peptide- or positive control-containing medium having the respective concentration were added, and cultured at 37° C. for 16 to 24 hours (or a time period suited for the growth of the respective strain). The well not containing the sample was used as a negative control. After the culturing, the growth was visually observed, and the minimum concentration at which the growth was inhibited was defined as the minimum growth inhibition concentration (MIC). The medium used in this test for bacteria was Mueller-Hinton broth. Independent experiments were carried out twice or more for each strain.

[2] = system: Pseudomonas aeruginosa ATCC 27853; assay: microbe, parasite or virus in culture; format: cell-based
Method: as §1

[3] = system: Staphylococcus aureus ATCC29213; assay: microbe, parasite or virus in culture; format: cell-based
Method: as §1

[4] = system: Staphylococcus epidermidis JCM 2414; assay: microbe, parasite or virus in culture; format: cell-based
Method: as §1

[5] = system: Escherichia coli ATCC 25922; assay: ATP Assay (viability at 3 hours), Table 6; format: cell-based; conditions: 3 h, 5 μg/mL
Method: (§2) Bacteria (Escherichia coli ATCC 25922, Pseudomonas aeruginosa ATCC 27853, Staphylococcus aureus ATCC29213, and Staphylococcus epidermidis JCM 2414) were inoculated to Mueller-Hinton broth: MHB or LB medium, and cultured at a temperature and period suited for each strain. From the thus obtained colonies, each strain was inoculated to a fresh liquid medium and cultured for 16 to 20 hours. Then an aliquot having a volume (10 to 50 μL) appropriate to each strain was inoculated to a fresh liquid medium and cultured for 4 to 6 hours, followed by the measurement of the absorbance at 600 nm. After comparing the turbidity with McFarland #0.5, the resultant was diluted with a medium. Each strain was added to about 10^5 CFU/mL (final concentration).
(§3) Each of the peptide solutions to be tested was diluted with the medium to obtain a solution of 10 μg/mL. As positive controls, tobramycin (TOB), oxacillin (OX) and meropenem (MEPM) were used. By dilution with sterilized purified water to 1.0 mg/mL, positive control-containing media having concentrations of […], respectively for TOB; 0.5, 0.12 and 0.06 μg/mL, respectively, for OX; and 1.0, 0.25, 0.12, 0.06, 0.03 and 0.008 μg/mL respectively, for MEPM, were prepared. To a 96-well microtiter plate, 0.1 mL of the inoculation solution and 0.1 mL of the peptide- or positive control-containing medium having the respective concentration were added, and cultured at 37° C. for 3 hours. The well not containing the sample was used as a negative control. After the culturing, ATP was measured using BacTiter-Glo Microbial Cell Viability Assay kit of PROMEGA, and compared with that in the negative control to obtain a relative value which was defined as a viability. The antibacterial activity was evaluated based on the viability at 3 hours later using ATP as an index.
(§4) The medium used in this test for bacteria was Mueller-Hinton broth. Independent experiments were carried out twice for each strain.

[6] = system: Pseudomonas aeruginosa ATCC 27853; assay: ATP Assay (viability at 3 hours), Table 6; format: cell-based; conditions: 3 h, 5 μg/mL
Method: as §2, §3, §4

[7] = system: Staphylococcus aureus ATCC29213; assay: ATP Assay (viability at 3 hours), Table 6; format: cell-based; conditions: 3 h, 5 μg/mL
Method: as §2, §3, §4

[8] = system: Micrococcus luteus NBRC13867
[9] = system: Bacillus subtilis NBRC3134; conditions: NBRC3134
[10] = system: Salmonella enteritidis IID 604; conditions: IID 604
[11] = system: Salmonella typhimurium JCM1652; conditions: JCM1652
[12] = system: Streptococcus pyogenes JCM5674
[13] = system: Acinetobacter baumanni JCM6841; conditions: JCM6841
[14] = system: Bacteroides fragilis JCM 11019; conditions: Table 4; two tests, first/second value where not identical
[15] = system: Fusobacterium nucleatum JCM 11025; conditions: JCM 11025
[16] = system: Actinobacillus actinomycetemcomitans JCM2434
[17] = system: Fusarium solani JCM11383; conditions: JCM11383
[18] = system: Alternaria alternata JCM5800; conditions: JCM5800
[19] = system: Trichophyton mentagrophytes NBRC6124; conditions: NBRC6124
[20] = system: Trichophyton rubrum NBRC9185; conditions: NBRC9185
[21] = system: Candida krusei NBRC1395; conditions: NBRC1395
[22] = system: Enterobacter aerogenes JCM 1235; assay: microbe, parasite or virus in culture; format: cell-based; conditions: Table 4; two tests, first/second value where not identical
Method: as §1

[23] = system: Klebsiella pneumoniae JCM 1662; assay: microbe, parasite or virus in culture; format: cell-based
Method: as §1

[24] = system: Enterobacter cloacae JCM 1232; format: cell-based; conditions: Table 4; two tests, first/second value where not identical
Method: as §1

[25] = system: Pseudomonas aeruginosa 1 (clinical strain); assay: microbe, parasite or virus in culture; conditions: Table 4; clinical strain; first/second value where not identical
Method: as §2, with “ATCC29213, Klebsiella pneumoniae JCM 1662, Enterobacter cloacae JCM 1232, Enterobacter aerogenes JCM 1235” for “ATCC29213,”, “50” for “50 μL)”
(§5) Further, the antibacterial activities against the clinical strains collected and isolated from infected patients were also examined. The tests were carried out for two methicillin-resistant Staphylococcus (MRSA) (MRSA (i) and (ii)), two methicillin-sensitive Staphylococcus (MSSA) (MSSA (i) and (ii)), five Pseudomonas aeruginosa, Pseudomonas aeruginosa 1, Pseudomonas aeruginosa 6, Pseudomonas aeruginosa 8. Pseudomonas aeruginosa 9 and Pseudomonas aeruginosa 12, totally 9 clinical strains. The MRSA and MSSA clinical strains were tested by the same method as Staphylococcus aureus ATCC29213, and Pseudomonas clinical strains were tested by the same method as Pseudomonas aeruginosa ATCC 27853.
(§6) Each of the peptide solutions to be tested was diluted with MHB to obtain a solution of 128 μg/mL. This solution was serially diluted with the medium to prepare peptide-containing media having concentrations of 128, 64, 32, 16, 8.0, 4.0 and 2.0 μg/mL respectively. […] By dilution with sterilized purified water to 1.0 mg/mL, positive control-containing media having concentrations of 16, 8, 4, 2, 1.0, 0.25, 0.12 and 0.06 μg/mL, respectively for TOB; 0.5, 0.12 and 0.06 μg/mL, respectively, for OX; and 16, 8, 4, 2, 1.0, 0.25, 0.12, 0.06, 0.06, 0.03 and 0.008 μg/mL, respectively, for MEPM, were prepared.
(§7) To a 96-well microtiter plate, 0.1 mL of the inoculation solution and 0.1 mL of the peptide- or positive control-containing medium having the respective concentration were added, and cultured at 37° C. for 16 to 24 hours (or a time period suited for the growth of the respective strain). The well not containing the sample was used as a negative control. After the culturing, the growth was visually observed, and the minimum concentration at which the growth was inhibited was defined as the minimum growth inhibition concentration (MIC).
(§8) The medium used in this test for bacteria was Mueller-Hinton broth. Independent experiments were carried out twice or more for each strain.

[26] = system: Pseudomonas aeruginosa 12 (clinical strain); assay: microbe, parasite or virus in culture
Method: as §2, with “ATCC29213, Klebsiella pneumoniae JCM 1662, Enterobacter cloacae JCM 1232, Enterobacter aerogenes JCM 1235” for “ATCC29213,”, “50” for “50 μL)”
as §5, §6, §7, §8

[27] = system: Pseudomonas aeruginosa 6 (clinical strain); assay: microbe, parasite or virus in culture; conditions: Table 4; clinical strain; first/second value where not identical
Method: as §2, with “ATCC29213, Klebsiella pneumoniae JCM 1662, Enterobacter cloacae JCM 1232, Enterobacter aerogenes JCM 1235” for “ATCC29213,”, “50” for “50 μL)”
as §5, §6, §7, §8

[28] = system: Pseudomonas aeruginosa 9 (clinical strain); assay: microbe, parasite or virus in culture; conditions: Table 4; clinical strain; first/second value where not identical
Method: as §2, with “ATCC29213, Klebsiella pneumoniae JCM 1662, Enterobacter cloacae JCM 1232, Enterobacter aerogenes JCM 1235” for “ATCC29213,”, “50” for “50 μL)”
as §5, §6, §7, §8

[29] = system: Pseudomonas aeruginosa 8 (clinical strain); conditions: Table 4; clinical strain; first/second value where not identical
Method: as §2, with “ATCC29213, Klebsiella pneumoniae JCM 1662, Enterobacter cloacae JCM 1232, Enterobacter aerogenes JCM 1235” for “ATCC29213,”, “50” for “50 μL)”
as §5, §6, §7, §8

[30] = system: Aspergillus niger NBRC 9455; conditions: Table 4; two tests, first/second value where not identical
[31] = system: Cryptococcus neoformans IFM 46660
[32] = system: Rhizopus oryzae NBRC 31005; conditions: NBRC 31005
[33] = Table 4, two tests, first/second value where not identical
[34] = Table 4, clinical strain, first/second value where not identical

Row | Substance | MIC Escherichia coli [1, 33] | MIC Pseudomonas aeruginosa ([2]; ATCC 27853) | MIC Staphylococcus aureus ([3]; ATCC29213) | MIC Staphylococcus epidermidis ([4]; JCM 2414) | Escherichia coli ATP (viability, relative value to negative control) [5] | Pseudomonas aeruginosa ATP (viability, relative value to negative control) [6] | Staphylococcus aureus ATP (viability, relative value to negative control) [7] | MIC Enterobacter aerogenes [22] | MIC Klebsiella pneumoniae [23, 33] | MIC Enterobacter cloacae [24] | MIC Pseudomonas aeruginosa 1 [25] | MIC Pseudomonas aeruginosa 6 [27] | MIC Pseudomonas aeruginosa 9 [28] | MIC Pseudomonas aeruginosa 8 [29] | MIC Aspergillus niger [30] | MIC Cryptococcus neoformans ([31]; IFM 46660) | MIC Rhizopus oryzae [32] | MIC Pseudomonas aeruginosa 12 [26, 34] | also measured
1 | Ac-GRLKRMGERLKRKIQKWIRW-NH2 [SRP-19] | 8/16 | 8 µg/mL | 8 µg/mL | 8 µg/mL | 2.9 | 1.6 | 2.1 |  |  |  |  |  |  |  |  |  |  |  | MIC Micrococcus luteus [8]: 2 µg/mL; MIC Bacillus subtilis [9]: 2 µg/mL; MIC Salmonella Enteritidis [10]: 4 µg/mL; MIC Salmonella Typhimurium [11]: 4 µg/mL; MIC Streptococcus pyogenes [12]: 16 µg/mL; MIC Acinetobacter baumanni [13]: 32 µg/mL; MIC Bacteroides fragilis [14]: 16/8; MIC Fusobacterium nucleatum [15]: 4 µg/mL; MIC Actinobacillus actinomycetemcomitans [16]: 64 µg/mL; MIC Fusarium solani [17]: 16 µg/mL; MIC Alternaria alternata [18]: 64 µg/mL; MIC Trichophyton mentagrophytes [19]: 32 µg/mL; MIC Trichophyton rubrum [20]: 64 µg/mL; MIC Candida krusei [21]: 16 µg/mL
2 | LKLIFLHRLKRMRKRLKRKL-NH2 [SRP-11] | 32/64 | 16 µg/mL | 16 µg/mL | 8 µg/mL | 3.8 | 0.8 | 0.3 | 32/64 | 64/128 | 128< mg/mL | 16/32 | 16/32 | 16/32 | 16/32 | 8/32 | 2 µg/mL | 8 µg/mL |  | MIC Pseudomonas aeruginosa 12 ([26]; 12 (clinical strain)): 16 µg/mL
3 | MLKLIFLHRLKRMRKRLKRK-NH2 [SRP-10] | 32/64 |  | 16 µg/mL | 8 µg/mL | 2.4 | 0.9 | 0.2 | 16/128 | 64/128 | 64/128 | 16/64 | 32/128 | 64/128 | 64/128 | 8/16 | 2 µg/mL | 8 µg/mL | 16/32 | MIC Pseudomonas aeruginosa [2, 33]: 16/32
4 | MLKLIFLHRLKRMRKRLKRKLR-NH2 [SRP-9] |  | 16 µg/mL |  |  | 2.6 | 0.8 | 0.2 | 16/64 |  | 16/64 | 16/32 | 16/64 | 32/128 | 8/32 | 16/32 |  | 8 µg/mL | 16/32 | MIC Escherichia coli ([1]; ATCC 25922): 32 µg/mL; MIC Klebsiella pneumoniae ([23]; JCM 1662): 64 µg/mL; MIC Staphylococcus aureus [3, 33]: 16/32; MIC Staphylococcus epidermidis [4, 33]: 8/32; MIC Cryptococcus neoformans [31, 33]: 1/2
